# In article PMC7894522, “Structure Based Design of Bicyclic Peptide Inhibitors of RbAp48” (Angewandte Chemie (International Ed. in English), 2020):
# Read-outs that look alike come from different tables or passages of the source. Starred links: 1 amine or outer side, 2 acyl side, 3 side chain; linkers in the order of their positions; H or OH if unused. Positions of bridges follow the written chain, without caps; N, C: chain ends. Residues, ends and D or L forms follow the SMILES beside them. TBMB = c1c(C[*:1])cc(C[*:3])cc1C[*:2]; mXylylene = c1cc(C[*:1])cc(C[*:2])c1; pXylylene = c1cc(C[*:2])ccc1C[*:1]
# Target: RbAp48 (Homo sapiens, UniProt Q09028)
# Sequence (Q09028 whole entry): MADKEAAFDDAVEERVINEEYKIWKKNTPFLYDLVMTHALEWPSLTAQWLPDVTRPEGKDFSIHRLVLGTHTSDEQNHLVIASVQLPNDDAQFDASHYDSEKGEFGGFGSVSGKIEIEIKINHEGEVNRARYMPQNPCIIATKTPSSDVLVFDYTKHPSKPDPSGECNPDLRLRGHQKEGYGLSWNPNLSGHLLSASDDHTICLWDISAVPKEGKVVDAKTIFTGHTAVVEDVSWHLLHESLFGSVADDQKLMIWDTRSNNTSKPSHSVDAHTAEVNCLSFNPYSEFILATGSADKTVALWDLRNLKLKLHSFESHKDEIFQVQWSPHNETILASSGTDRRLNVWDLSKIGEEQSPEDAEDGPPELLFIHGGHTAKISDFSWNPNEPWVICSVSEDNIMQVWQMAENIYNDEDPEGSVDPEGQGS
# Test: Competitive fluorescence polarization (FP) assay using complex of peptide 1 and RbAp48
# Format: binding
# Parameters: Full length RbAp48 was cloned; His tag followed by 3C cleavage site (N, cleaved yes); made in house; host or cells: Sf9 insect cells
# Conditions: for IC50: competitive FP, RbAp48 15 nM, read-out: IC50
# Method: The binding affinity of our library of synthetic cyclic peptides was evaluated by a competitive fluorescence polarization (FP) assay using a complex formed by peptide 1 and RbAp48. To reduce the length of the peptide it was truncated to the amino acids which seemed most critical according to the crystal structure (residues 676–689, pdb:4pbz). […] We chose to use a cyclization approach to regain affinity, that is, not to induce more interactions but through minimizing the entropic penalty upon binding by reducing the flexibility of the peptide. To this end two amino acids were chosen which are facing one another in the structure (see Figure 1 B/D/E). Two peptides were designed where glutamic acid was used in position 676 (4) or position 680 (5) and lysine in position 688 for both peptides (see Table 1). The macrocycles were formed by connecting the side chains via an amide bond (see Figure 1 D/E). Peptide synthesis was performed on Rink‐amide resin using the Fmoc‐strategy incorporating Fmoc‐L‐Glu(All)‐OH and Fmoc‐L‐Lys(Alloc)‐OH at the sites for cyclization. After completion of the linear synthesis the allyl protecting groups were removed using Pd^0 catalysis and the amide link was formed by using PyBOP. […] Therefore, a range of peptides was synthesized which were cyclized using the same amino acid positions but via a cysteine alkylation strategy (see Figure 1 D/E and Table 1). In this method the residues used for cyclization are replaced with cysteine and benzylic dibromides act as crosslinkers on the unprotected peptides. ^[11] Previous research has shown that such linkers can effectively stabilize cyclic peptides and yield high affinity ligands for protein–protein interaction inhibition. ^[12] Such a linker introduces a xylene group in close vicinity of the hydrophobic patch potentially reconstituting the lost key hydrophobic interactions. To explore a variety of macrocycle conformations we used either ortho‐, meta‐ or para‐substituted dibromides to exchange the linker in both 4 and 5 (see Figure 1 D/E and Table 1). ^[13]
# Protein expression and purification
# RbAp48 was expressed and purified by the Dortmund Protein Facility. Full length RbAp48 was cloned into a pOPIN vector ligating it to an N-terminal His tag followed by a 3C cleavage site. The protein was expressed from Sf9 cells for 48 h. Cells were harvested and lysed and the protein was purified by loading onto a HisTrap FF crude 5 ml column followed by on-column cleavage using Precission protease. The cleaved protein was then further purified using a HiLoad 26/60 Superdex 200 column.
# Fluorescence polarization assay
# Fluorescence polarization assays were performed in 384 wells plates in 80 µl volumes. The assay buffer contains 20 mM Tris-HCl, 150 mM NaCl, 0.01% Tween-20 at pH 7.5. The concentration of the fluorescently labelled peptides was 1 nM plates were incubated at room temperature for 30 min before they were read on a Tecan Spark plate reader (λex = 485 nm, λem = 535 nm).
# For competitive assays the same conditions were used with a tracer concentration of 1 nM was used and a protein concentration of 15 nM .
# [1] = Supplemental Table 2, tracer 1 nM, pH 7.5, 30 min room temperature
# [2] = Table 1, tracer peptide 1 1 nM, 20 mM Tris-HCl, 150 mM NaCl, 0.01% Tween-20, pH 7.5, 30 min room temperature, lower limit set by 15 nM protein
SMILES,IC50 [1],FP activity in words (competitive FP assay),IC50 [2]
CC(=O)N[C@H]1CSCc2cccc(c2)CSC[C@@H](C(=O)N[C@@H](C)C(N)=O)NC(=O)[C@@H]2CCCN2C(=O)[C@H](CCCCN)NC(=O)[C@H](Cc2ccc(O)cc2)NC(=O)[C@@H]2CCCN2C(=O)[C@H](CCCNC(=N)N)NC(=O)[C@H](CCCNC(=N)N)NC(=O)[C@H](C)NC(=O)[C@H](C)NC(=O)[C@H](CCCNC(=N)N)NC(=O)[C@H](CCCCN)NC(=O)[C@@H]2CCCN2C1=O [Peptide 20] (Ac-CPKRAARRPYKPCA-NH2; linker 1-13 via mXylylene),22.3 ± 0.03 nM,IC50 values similar to those of 7 and 8,–
CC(=O)N[C@H]1CSCc2cccc(c2)CSC[C@@H](C(=O)N[C@@H](CC(N)=O)C(N)=O)NC(=O)[C@@H]2CCCN2C(=O)[C@H](CC(C)C)NC(=O)[C@H](Cc2ccc(O)cc2)NC(=O)[C@@H]2CCCN2C(=O)[C@H](Cc2c[nH]cn2)NC(=O)[C@H](CCCNC(=N)N)NC(=O)[C@H](C)NC(=O)[C@H](C)NC(=O)[C@H](Cc2c[nH]cn2)NC(=O)[C@H](Cc2c[nH]c3ccccc23)NC(=O)[C@@H]2CCCN2C(=O)[C@H](CCCNC(=N)N)NC1=O [Peptide 16] (Ac-CRPWHAARHPYLPCN-NH2; linker 1-14 via mXylylene),> 10000 nM,–,–
CC(=O)N[C@H]1CSCc2cccc(c2)CSC[C@@H](C(=O)N[C@@H](C)C(N)=O)NC(=O)[C@@H]2CCCN2C(=O)[C@H](CCCCN)NC(=O)[C@H](Cc2ccc(O)cc2)NC(=O)[C@@H]2CCCN2C(=O)[C@H](CCCNC(=N)N)NC(=O)[C@H](CCCNC(=N)N)NC(=O)[C@H](C)NC(=O)[C@H](C)NC(=O)[C@H](CCCNC(=N)N)NC(=O)[C@H](Cc2c[nH]c3ccccc23)NC(=O)[C@H]([C@@H](C)O)NC1=O [Peptide 22] (Ac-CTWRAARRPYKPCA-NH2; linker 1-13 via mXylylene),315 ± 57.8 nM,–,–
CC(=O)N[C@@H](CCC(=O)O)C(=O)N[C@H](C(=O)N[C@@H](CCCCN)C(=O)N[C@@H](CCCNC(=N)N)C(=O)N[C@H]1CSCc2cccc(c2)CSC[C@@H](C(=O)N[C@@H](C)C(N)=O)NC(=O)[C@@H]2CCCN2C(=O)[C@H](CCCCN)NC(=O)[C@H](Cc2ccc(O)cc2)NC(=O)[C@@H]2CCCN2C(=O)[C@H](CCCNC(=N)N)NC(=O)[C@H](CCCNC(=N)N)NC(=O)[C@H](C)NC1=O)[C@@H](C)O [Peptide 11] (Ac-ETKRCARRPYKPCA-NH2; linker 5-13 via mXylylene),–,–,388 ± 69.8 nM
CC(=O)N[C@H]1CSCc2ccc(cc2)CSC[C@@H](C(=O)N[C@@H](C)C(N)=O)NC(=O)[C@@H]2CCCN2C(=O)[C@H](CCCCN)NC(=O)[C@H](Cc2ccc(O)cc2)NC(=O)[C@@H]2CCCN2C(=O)[C@H](Cc2c[nH]cn2)NC(=O)[C@H](CCCNC(=N)N)NC(=O)[C@H](C)NC(=O)[C@H](C)NC(=O)[C@H](CCCNC(=N)N)NC(=O)[C@H](CCCCN)NC(=O)[C@H]([C@@H](C)O)NC1=O [Peptide 27] (Ac-CTKRAARHPYKPCA-NH2; linker 1-13 via pXylylene),335 ± 65 nM,–,–
CC(=O)N[C@H]1CSCc2cc3cc(c2)CSC[C@@H](C(=O)N[C@@H](C)C(N)=O)NC(=O)[C@@H]2CCCN2C(=O)[C@H](CCCCN)NC(=O)[C@H](Cc2ccc(O)cc2)NC(=O)[C@@H]2CCCN2C(=O)[C@H](CCCNC(=N)N)NC(=O)[C@H](CCCNC(=N)N)NC(=O)[C@H](C)NC(=O)[C@H](CSC3)NC(=O)[C@H](CCCNC(=N)N)NC(=O)[C@H](CCCCN)NC(=O)[C@H](C)NC1=O [Peptide 37] (Ac-CAKRCARRPYKPCA-NH2; linker 1-5-13 via TBMB),–,–,12.4 ± 3.2 nM
CC(=O)N[C@H]1CSCc2cc3cc(c2)CSC[C@@H](C(=O)N[C@@H](CC(N)=O)C(N)=O)NC(=O)[C@@H]2CCCN2C(=O)[C@H](CC(C)C)NC(=O)[C@H](Cc2ccc(O)cc2)NC(=O)[C@@H]2CCCN2C(=O)[C@H](Cc2c[nH]cn2)NC(=O)[C@H](CCCNC(=N)N)NC(=O)[C@H](C)NC(=O)[C@H](CSC3)NC(=O)[C@H](Cc2c[nH]cn2)NC(=O)[C@H](Cc2c[nH]c3ccccc23)NC(=O)[C@@H]2CCCN2C(=O)[C@H](CCCNC(=N)N)NC1=O [Peptide 34] (Ac-CRPWHCARHPYLPCN-NH2; linker 1-6-14 via TBMB),153 ± 2.4 nM,–,–
CC(=O)N[C@@H](CCC(=O)O)C(=O)N[C@H](C(=O)N[C@@H](CCCCN)C(=O)N[C@@H](CCCNC(=N)N)C(=O)N[C@H]1CCC(=O)NCCCC[C@@H](C(=O)N[C@@H](C)C(N)=O)NC(=O)[C@@H]2CCCN2C(=O)[C@H](CCCCN)NC(=O)[C@H](Cc2ccc(O)cc2)NC(=O)[C@@H]2CCCN2C(=O)[C@H](CCCNC(=N)N)NC(=O)[C@H](CCCNC(=N)N)NC(=O)[C@H](C)NC1=O)[C@@H](C)O [Peptide 5] (Ac-ETKREARRPYKPKA-NH2; lactam 5-13),–,–,126 ± 32.3 nM
CC(=O)N[C@@H](CCC(=O)O)C(=O)N[C@H](C(=O)N[C@@H](CCCCN)C(=O)N[C@@H](CCCNC(=N)N)C(=O)N[C@H]1CSCc2ccc(cc2)CSC[C@@H](C(=O)N[C@@H](C)C(N)=O)NC(=O)[C@@H]2CCCN2C(=O)[C@H](CCCCN)NC(=O)[C@H](Cc2ccc(O)cc2)NC(=O)[C@@H]2CCCN2C(=O)[C@H](CCCNC(=N)N)NC(=O)[C@H](CCCNC(=N)N)NC(=O)[C@H](C)NC1=O)[C@@H](C)O [Peptide 12] (Ac-ETKRCARRPYKPCA-NH2; linker 5-13 via pXylylene),–,–,2340 ± 363 nM
CC(=O)N[C@H]1CSCc2ccc(cc2)CSC[C@@H](C(=O)N[C@@H](CC(N)=O)C(N)=O)NC(=O)[C@@H]2CCCN2C(=O)[C@H](CC(C)C)NC(=O)[C@H](Cc2ccc(O)cc2)NC(=O)[C@@H]2CCCN2C(=O)[C@H](Cc2c[nH]cn2)NC(=O)[C@H](CCCNC(=N)N)NC(=O)[C@H](C)NC(=O)[C@H](C)NC(=O)[C@H](Cc2c[nH]cn2)NC(=O)[C@H](Cc2c[nH]c3ccccc23)NC(=O)[C@@H]2CCCN2C1=O [Peptide 19] (Ac-CPWHAARHPYLPCN-NH2; linker 1-13 via pXylylene),> 10000 nM,–,–
CC(=O)N[C@H]1CSCc2ccc(cc2)CSC[C@@H](C(=O)N[C@@H](C)C(N)=O)NC(=O)[C@@H]2CCCN2C(=O)[C@H](CCCCN)NC(=O)[C@H](Cc2ccc(O)cc2)NC(=O)[C@@H]2CCCN2C(=O)[C@H](CCCNC(=N)N)NC(=O)[C@H](CCCNC(=N)N)NC(=O)[C@H](C)NC(=O)[C@H](C)NC(=O)[C@H](Cc2c[nH]cn2)NC(=O)[C@H](CCCCN)NC(=O)[C@H]([C@@H](C)O)NC1=O [Peptide 25] (Ac-CTKHAARRPYKPCA-NH2; linker 1-13 via pXylylene),303 ± 85.9 nM,–,–
CC(=O)N[C@H]1CSCc2cc3cc(c2)CSC[C@H](NC(=O)[C@H](CCCNC(=N)N)NC(=O)[C@H](CCCCN)NC(=O)[C@H]([C@@H](C)O)NC1=O)C(=O)N[C@@H](C)C(=O)N[C@@H](CCCNC(=N)N)C(=O)N[C@@H](CCCNC(=N)N)C(=O)N1CCC[C@H]1C(=O)N[C@@H](Cc1ccc(O)cc1)C(=O)N[C@@H](CCCCN)C(=O)N1CCC[C@H]1C(=O)N[C@H](C(N)=O)CSC3 [Peptide 46] (Ac-CTKRCARRPYKPC-NH2; linker 1-5-13 via TBMB),–,–,20.5 ± 1.4 nM
